Measured values published in patent publication US5798391A, “Injectable solution of benzalkonium fluoride” (Aromafarm Limited, priority 1994, dated 1998).
Like-named read-outs stand apart in the source and are kept apart here.

How the values were obtained:
E[…] 1 = assay type: cell-based, polio enterovirus 1, SABIN strain; conditions: 32° C.
ADENOVIRUS Type 5 = experiment: virucidal activity of BKF, AFNOR T72-180, molecular screening (Table 3); assay type: cell-based; conditions: 32° C.
Protocol: We have determined the virucide activity of tetradecyl-dimethyl-benzyl-ammonium fluoride (BKF) vis-a-vis vertebrate viruses in conformance with French Standard AFNOR T72-180, December 1989. This benzalkonium fluoride was diluted in solution in sterile distilled water at the following concentrations: 0.02, 0.01, 0.005% (weight divided by volume).
adenovirid.ae butted.: adenovirus type 5, cultivated on KB cell,
The water, the culture medium and the reagents are those recognised by Standard AFNOR T72-180. The titration of the virus is by reading the cytopathic test, following the method described in Standard AFNOR T72-180. The calculation of the infectious titration is by the FISHER and YATES method with the WYSHAK and DETRE tables. The results are given in number of infectious units per ml, or plaque-forming units per ml (PFU/ml).
The virucidal activity was then determined by the technique known as molecular screening, consisting of filtration on sephadex gel LH 20 and using subcytotoxic concentrations of benzalkonium fluoride. The virucidal activity was determined as a function of contact time between the benzalkonium fluoride and the viral strain. […] The virucidal activity of benzalkonium fluoride (BKF) is determined by the minimal concentration and minimal contact time with the virus which provoked a reduction of infectious titration of the viruses by a logarithmic factor of a least 4. […]

[1] = test system: HERPES SIMPLEX VIRUS TYPE 1; experiment: virucidal activity of BKF, AFNOR T72-180, molecular screening (Table 4); assay type: cell-based, Herpes Simplex Virus Type 1 (HSV 1); conditions: 32° C.
[2] = test system: HERPES SIMPLEX VIRUS TYPE 2; experiment: virucidal activity of BKF, AFNOR T72-180, molecular screening (Table 5); assay type: cell-based, Herpes Simplex Virus Type 2 (HSV 2); conditions: 32° C.
HIV-1 virus (LAI strain) = experiment: residual infectiousness of treated HIV-1 on activated human lymphocytes, reverse transcriptase activity; assay type: cell-based, HIV-1 (LAI strain)
[3] = test system: activated human PBMC lymphocytes; experiment: toxicity of residual BKF (sample REV4) on infectiousness test cells; assay type: cell-based; conditions: REV4: BKF 20 μg/ml diluted in NTE buffer and centrifuged
guinea pigs = experiment: LD 50, unique administration, Behrens and Karber method, guinea pigs; assay type: in vivo, albino guinea pig
Protocol: The high toxicity of benzalkonium fluoride in unique administration in mice and guinea pigs was determined by the Behrens and Karber method, by intracardiac, intravenous and intraperitoneal injection. The animals used were young adult albino mice and albino guinea pigs. Ten animals were used for each dose administered, five males and five females. The benzalkonium fluoride was used in a 3 g/l isotonic solution of sterile apyrogenic sodium chloride. We observed the animals for 7 days after unique administration carried out using a sterile needle adapted to a syringe graduated in 1/10 ml to allow the treatment of each animal with an exact dose. The animals were weighed each day during the observation period.
The LD 50 (lethal dose 50) was determined.

dogs (beagles) = conditions: dog, in vivo
[4] = in vitro haemolysis of total blood, human; conditions: human, blood
human blood = experiment: in vitro haemolysis of total blood, human
patient's blood = experiment: haemolytic concentration on AIDS patients' blood before injection; conditions: solution used 2.1 g/l
AIDS = conditions: person
[5] = female German Pointer 12 kg, same treatment

CCCCCCCCCCCCCC[N+](C)(C)Cc1ccccc1.[F-] [benzalkonium fluoride, tetradecyl-dimethyl-benzyl-ammonium fluoride]
virucidal activity: minimal contact time (E[…] 1; 0.01% (m/V)): 30 min
Viral Titration (E[…] 1; 0.01% (m/V), 30 minutes): 0 PFU/ml
Viral Titration (E[…] 1; 0.01% (m/V), 60 minutes): 0 PFU/ml
Viral Titration (E[…] 1; 0.01% (m/V), 120 minutes): 0 PFU/ml
Viral Titration (E[…] 1; 0.02% (m/V), 120 minutes): 0 PFU/ml
virucidal activity: minimal concentration (reduction by logarithmic factor of at least 4) (E[…] 1; 30 minutes contact): 0.01 % (m/V)
virucidal activity: minimal contact time (ADENOVIRUS Type 5; 0.02% (m/V)): 120 min
virucidal activity: minimal concentration (reduction by logarithmic factor of at least 4) (ADENOVIRUS Type 5; 120 minutes contact): 0.02 % (m/V)
virucidal activity: minimal contact time ([1]; 0.01% (m/V)): 5 min
Viral Titration ([1]; 0.01% (m/V), 30 minutes): 0 PFU/ml
Viral Titration ([1]; 0.01% (m/V), 60 minutes): 0 PFU/ml
Viral Titration ([1]; 0.01% (m/V), 120 minutes): 0 PFU/ml
Viral Titration ([1]; 0.02% (m/V), 15 minutes): 0 PFU/ml
Viral Titration ([1]; 0.02% (m/V), 30 minutes): 0 PFU/ml
Viral Titration ([1]; 0.02% (m/V), 60 minutes): 0 PFU/ml
Viral Titration ([1]; 0.02% (m/V), 120 minutes): 0 PFU/ml
virucidal activity: minimal concentration (reduction by logarithmic factor of at least 4) ([1]; 5 minutes contact): 0.01 % (m/V)
virucidal activity: minimal contact time ([2]; 0.01% (m/V)): 15 min
Viral Titration ([2]; 0.01% (m/V), 60 minutes): 0 PFU/ml
Viral Titration ([2]; 0.01% (m/V), 120 minutes): 0 PFU/ml
Viral Titration ([2]; 0.02% (m/V), 15 minutes): 0 PFU/ml
Viral Titration ([2]; 0.02% (m/V), 30 minutes): 0 PFU/ml
Viral Titration ([2]; 0.02% (m/V), 60 minutes): 0 PFU/ml
Viral Titration ([2]; 0.02% (m/V), 120 minutes): 0 PFU/ml
virucidal activity: minimal concentration (reduction by logarithmic factor of at least 4) ([2]; 15 minutes contact): 0.01 % (m/V)
RT activity in culture supernatants (HIV-1 virus (LAI strain); 1/2 dilution of virus treated with BKF, second experiment (FIG. 2)): No RT activity was detected
reverse transcriptase activity in culture supernatants (HIV-1 virus (LAI strain); 1/10 dilution of virus treated with BKF 20 μg/ml for 30 or 60 minutes (FIG. 1)): no reverse transcriptase activity is revealed
log reduction at 20 µg/mL (HIV-1 virus (LAI strain); Human immunodeficiency virus 1, Lymphocyte, 20 μg/ml, activated human lymphocytes, read-out: loss of infectious capacity in the HIV-1 virus): 5
toxicity for the infectiousness test cells [3]: not toxic
LD 50 (guinea pigs; female guinea pig, intracardiac): 16.50 mg/mL
LD 50 (guinea pigs; female guinea pig, intraperitoneal): 20.50 mg/mL
LD 50 (guinea pigs; male guinea pig, intracardiac): 15.50 mg/mL
LD 50 (guinea pigs; male guinea pig, intraperitoneal): 28.50 mg/mL
toxicity threshold (D.L.0) (VERO, KB and MCR-5 cells; after filtration): 0.01%
toxicity threshold (D.L.0) (VERO, KB and MCR-5 cells; before filtration): 0.05%
blood in the urine, male (dogs (beagles)): a high level of blood in the urine
blood in urine from bladder, male (dogs (beagles)): no trace of blood
blood in urine, male (dogs (beagles)): absence of blood
glucose in urine, male (dogs (beagles)): absence of glucose
haemolysis in urine samples, female (dogs (beagles)): no signs of h.ae butted.molysis
histological examination of the various organs (dogs (beagles)): no alteration due to treatment
ketonic bodies in urine, male (dogs (beagles)): traces of ketonic bodies
number of leukocytes (dogs (beagles)): increased
proteins in urine, male (dogs (beagles)): traces of proteins
urine sodium and potassium, female (dogs (beagles)): remained almost stable
urine sodium and potassium, male (dogs (beagles)): showed variations
tolerance (parvovirus; dog, in vivo): excellent
normal eating (parvovirus; [5]): 4 days
total recovery confirmed (parvovirus; [5]): 18 days
total recovery (parvovirus; female German Shepherd 10 kg, 10 ml then 20 ml, associated treatment 8 days): 20 days
complete recovery (parvovirus; female Rottweiler 15 kg, two injections of 10 ml, 12 h apart): 18 days
recovery, days after start of treatment (parvovirus; male German Shepherd 20 kg, two injections at 12 h interval, 2.1 g/l): 6 days
normal eating (parvovirus; male Newfoundland 28 kg, after four days): eating normally
blood in urine and vomiting (parvovirus; male Newfoundland 28 kg, two injections of 10 ml, end of second day): the blood had disappeared from the urine and the dog no longer vomited
death (parvovirus; three puppies with violent evolutive gastro-enteritis, two injections at 12 h interval): Death occurred within two days
MNTC [4]: ≤ 20 µg/mL
haemolysis (human blood; 37.5 mg/l, man, guinea pig and rabbit blood): Not having noted h.ae butted.molysis
haemolysis (degree of red colouring) (human blood; 20 ppm or mg/l, 6 samples): 0
haemolysis (degree of red colouring) (human blood; 35 ppm or mg/l, 6 samples): 0
haemolysis (degree of red colouring) (human blood; 37.5 ppm or mg/l): 0
haemolysis (degree of red colouring) (human blood; 75 ppm or mg/l): +
haemolysis (degree of red colouring) (human blood; 150 ppm or mg/l): ++
haemolytic concentration on patient's blood (patient's blood): well above that of the solution used
pain at the injection point (AIDS; 50 ml at 2.1 g/l every twelve hours, end of second cure): pain at the injection point
number of CD4 (AIDS; after treatment, before: less than 200): 600
general state (AIDS; fourth month): returned to a normal general state
general state (AIDS; one month and seven months after treatment): a good general state
fever (AIDS; sixth day, 50 ml at 2.1 g/l every eight hours, three days, with Doxycycline): the fever had disappeared
fever, vomiting and diarrhoea (AIDS; tenth day): disappearance of the fever, vomiting and diarrhoea
general state (AIDS; tenth day, two cures of three days): a clear improvement in the general state
weight after gain (AIDS; tenth day, before 57 kg): 59.6 kg
fever (AIDS; third day, 2.1 g/l every twelve hours): a clear fall in the fever
clinical symptoms (AIDS; three and a half months): no clinical symptoms
general state (AIDS; three and a half months): a good general state
weight (AIDS; three and a half months, before 52 kg): 56 kg
number of CD4 (AIDS; three and a half months, before 200): 700
mobility (AIDS; totally bedridden before): could get up and walk
asthenia (AIDS; two months after start): progressive disappearance of the asthenia
